Measured values reported in ChEMBL document CHEMBL1201862, “PubChem BioAssay data set” (2004).
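Exposure lasted 48 hours, with cells grown in 96-well plates and compounds tested at five concentrations. GI50 is the concentration that inhibits growth by half.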 The source made the active and inactive calls. No stated cut-off is given here; in the data, active = GI50 up to about 1.1 µM and inactive = higher.

Columns and labels:
Experiment in all cases: NCI anticancer screen, dose series, 48 h
786-0 = tested on: 786-0
ACHN = tested on: ACHN
CAKI-1 = tested on: CAKI-1
HCC 2998 = tested on: HCC 2998
HOP-92 = tested on: HOP-92
HT-29 = tested on: HT-29
K562 = tested on: K562
KM12 = tested on: KM12
Malme-3M = tested on: Malme-3M
RPMI-8226 = tested on: RPMI-8226
RXF 393 = tested on: RXF 393
SF-295 = tested on: SF-295
SK-MEL-28 = tested on: SK-MEL-28
SK-MEL-2 = tested on: SK-MEL-2
SK-OV-3 = tested on: SK-OV-3
SW-620 = tested on: SW-620
UACC-257 = tested on: UACC-257
UACC-62 = tested on: UACC-62
CCRF-CEM = tested on: CCRF-CEM
HL-60 = tested on: HL-60

Row | Compound | GI50 (786-0) | GI50 (ACHN) | GI50 (CAKI-1) | GI50 (HCC 2998) | GI50 (HOP-92) | GI50 (HT-29) | GI50 (K562) | GI50 (KM12) | GI50 (Malme-3M) | GI50 (RPMI-8226) | GI50 (RXF 393) | GI50 (SF-295) | GI50 (SK-MEL-28) | GI50 (SK-MEL-2) | GI50 (SK-OV-3) | GI50 (SW-620) | GI50 (UACC-257) | GI50 (UACC-62) | GI50 (CCRF-CEM) | GI50 (HL-60)
1 | C[As+](C)(c1ccc(Br)c([N+](=O)[O-])c1)c1ccc(Br)c([N+](=O)[O-])c1 | > 100 µM (inactive) | > 100 µM (inactive) | > 100 µM (inactive) | > 100 µM (inactive) | > 100 µM (inactive) | > 100 µM (inactive) | > 100 µM (inactive) | > 100 µM (inactive) | 18.5 µM (inactive) | 44.7 µM (inactive) | > 100 µM (inactive) | > 100 µM (inactive) | 27.9 µM (inactive) | > 100 µM (inactive) | > 100 µM (inactive) | > 100 µM (inactive) | > 100 µM (inactive) | > 100 µM (inactive) | – | –
2 | COC(=O)/C=C(/C=C1/C(C#N)=C(N)N(c2ccc(Cl)cc2)C1(C)/C(=C/C(=O)OC)C(=O)OC)C(=O)OC (stereo not drawn) | 40.3 µM (inactive) | 42.7 µM (inactive) | > 100 µM (inactive) | 82.6 µM (inactive) | 42.3 µM (inactive) | 33.4 µM (inactive) | 20.6 µM (inactive) | – | 51.2 µM (inactive) | 24.7 µM (inactive) | – | 53.1 µM (inactive) | > 100 µM (inactive) | > 100 µM (inactive) | 52.5 µM (inactive) | 32.7 µM (inactive) | 63.4 µM (inactive) | 19.6 µM (inactive) | 27 µM (inactive) | 15.7 µM (inactive)
3 | Cc1cc(=O)c2c(O)cc3c(c2o1)CC=C(COC1OC(COC2OC(CO)C(O)C(O)C2O)C(O)C(O)C1O)CO3 (stereo not drawn) | > 100 µM (inactive) | > 100 µM (inactive) | > 100 µM (inactive) | > 100 µM (inactive) | > 100 µM (inactive) | – | > 100 µM (inactive) | > 100 µM (inactive) | > 100 µM (inactive) | – | – | > 100 µM (inactive) | > 100 µM (inactive) | > 100 µM (inactive) | > 100 µM (inactive) | > 100 µM (inactive) | > 100 µM (inactive) | > 100 µM (inactive) | > 100 µM (inactive) | –
4 | COc1ccc2c3c1C(=O)CCC3CO2 (stereo not drawn) | > 100 µM (inactive) | > 100 µM (inactive) | > 100 µM (inactive) | > 100 µM (inactive) | > 100 µM (inactive) | > 100 µM (inactive) | > 100 µM (inactive) | > 100 µM (inactive) | > 100 µM (inactive) | > 100 µM (inactive) | – | > 100 µM (inactive) | > 100 µM (inactive) | > 100 µM (inactive) | > 100 µM (inactive) | > 100 µM (inactive) | > 100 µM (inactive) | > 100 µM (inactive) | > 100 µM (inactive) | > 100 µM (inactive)
5 | CCOP(=O)(Nc1ccccc1P(=O)(OCC)OCC)OCC | > 100 µM (inactive) | > 100 µM (inactive) | > 100 µM (inactive) | > 100 µM (inactive) | > 100 µM (inactive) | > 100 µM (inactive) | > 100 µM (inactive) | > 100 µM (inactive) | > 100 µM (inactive) | > 100 µM (inactive) | > 100 µM (inactive) | > 100 µM (inactive) | > 100 µM (inactive) | > 100 µM (inactive) | > 100 µM (inactive) | > 100 µM (inactive) | > 100 µM (inactive) | > 100 µM (inactive) | – | –
6 | COC(OC)c1cccc2c1C1(O)CCC3(CC21)OCCCCO3 (stereo not drawn) | > 100 µM (inactive) | > 100 µM (inactive) | > 100 µM (inactive) | > 100 µM (inactive) | – | > 100 µM (inactive) | > 100 µM (inactive) | > 100 µM (inactive) | > 100 µM (inactive) | > 100 µM (inactive) | > 100 µM (inactive) | > 100 µM (inactive) | > 100 µM (inactive) | > 100 µM (inactive) | > 100 µM (inactive) | – | > 100 µM (inactive) | > 100 µM (inactive) | > 100 µM (inactive) | > 100 µM (inactive)
7 | O=C(c1ccccc1)N1CCc2c([nH]c3ccccc23)C1 | 54.7 µM (inactive) | 36.9 µM (inactive) | 28.4 µM (inactive) | 94.4 µM (inactive) | 48.6 µM (inactive) | 72.4 µM (inactive) | 45.4 µM (inactive) | 48.8 µM (inactive) | 35.8 µM (inactive) | 23.5 µM (inactive) | – | 36.6 µM (inactive) | 24.8 µM (inactive) | 27.1 µM (inactive) | 85.3 µM (inactive) | 37.5 µM (inactive) | 28.7 µM (inactive) | 51.4 µM (inactive) | 44.6 µM (inactive) | 15.7 µM (inactive)
8 | Cc1cc(C)c2c(-c3ccccc3)cc(=O)[nH]c2c1 | > 100 µM (inactive) | > 100 µM (inactive) | – | > 100 µM (inactive) | – | > 100 µM (inactive) | > 100 µM (inactive) | > 100 µM (inactive) | > 100 µM (inactive) | > 100 µM (inactive) | > 100 µM (inactive) | > 100 µM (inactive) | > 100 µM (inactive) | > 100 µM (inactive) | > 100 µM (inactive) | > 100 µM (inactive) | > 100 µM (inactive) | > 100 µM (inactive) | > 100 µM (inactive) | > 100 µM (inactive)
9 | Cc1ccc(S(=O)(=O)c2c3nc4ccccc4nc3n3c2[nH]c2ccccc23)cc1 | > 100 µM (inactive) | > 100 µM (inactive) | > 100 µM (inactive) | > 100 µM (inactive) | > 100 µM (inactive) | – | > 100 µM (inactive) | 58.1 µM (inactive) | > 100 µM (inactive) | > 100 µM (inactive) | – | – | > 100 µM (inactive) | > 100 µM (inactive) | > 100 µM (inactive) | > 100 µM (inactive) | > 100 µM (inactive) | 25.7 µM (inactive) | > 100 µM (inactive) | > 100 µM (inactive)
10 | CCOc1cccc2ccc[n+](CC)c12 | > 100 µM (inactive) | > 100 µM (inactive) | – | > 100 µM (inactive) | 61 µM (inactive) | 47.3 µM (inactive) | 25.1 µM (inactive) | 49.7 µM (inactive) | > 100 µM (inactive) | > 100 µM (inactive) | > 100 µM (inactive) | 45.7 µM (inactive) | > 100 µM (inactive) | – | > 100 µM (inactive) | 81.3 µM (inactive) | 57.9 µM (inactive) | > 100 µM (inactive) | 55.8 µM (inactive) | –
11 | COc1cc(OCc2ccc3nc(-c4ccccc4)c(Cl)nc3c2)cc(OC)c1OC | 29.4 µM (inactive) | 32.3 µM (inactive) | 24.8 µM (inactive) | > 100 µM (inactive) | 8.71 µM (inactive) | > 100 µM (inactive) | – | > 100 µM (inactive) | 26.3 µM (inactive) | > 100 µM (inactive) | – | 37.4 µM (inactive) | > 100 µM (inactive) | 45.5 µM (inactive) | – | > 100 µM (inactive) | > 100 µM (inactive) | 83.2 µM (inactive) | > 100 µM (inactive) | 24.5 µM (inactive)
12 | CCOC(=O)c1c(N2CCOCC2)[nH]c(=O)c(C(c2ccc(Cl)c([N+](=O)[O-])c2)c2c(O)c(C(=O)OCC)c(N3CCOCC3)[nH]c2=O)c1O | 28.1 µM (inactive) | 55.1 µM (inactive) | 82.6 µM (inactive) | > 100 µM (inactive) | 23.9 µM (inactive) | 20.9 µM (inactive) | 30.3 µM (inactive) | > 100 µM (inactive) | 41.4 µM (inactive) | 26.7 µM (inactive) | > 100 µM (inactive) | > 100 µM (inactive) | 42.6 µM (inactive) | – | > 100 µM (inactive) | 23.4 µM (inactive) | 70 µM (inactive) | 40.1 µM (inactive) | 4.76 µM (inactive) | –
13 | COc1cc(OC)cc(-n2c(N)c(-c3nc4ccccc4s3)c3ccc([N+](=O)[O-])cc3c2=O)c1 | 13.1 µM (inactive) | 12.5 µM (inactive) | 31.8 µM (inactive) | 84.5 µM (inactive) | 3.27 µM (inactive) | > 100 µM (inactive) | 13.4 µM (inactive) | 56.9 µM (inactive) | 32.5 µM (inactive) | > 100 µM (inactive) | – | 28.5 µM (inactive) | > 100 µM (inactive) | – | 79.6 µM (inactive) | > 100 µM (inactive) | > 100 µM (inactive) | > 100 µM (inactive) | 69.7 µM (inactive) | 0.208 µM (active)
14 | CC(C)NC1CCCCC2c3cc(F)ccc3[C@]12O (stereo partly drawn) | > 100 µM (inactive) | > 100 µM (inactive) | > 100 µM (inactive) | > 100 µM (inactive) | – | > 100 µM (inactive) | > 100 µM (inactive) | > 100 µM (inactive) | > 100 µM (inactive) | > 100 µM (inactive) | > 100 µM (inactive) | > 100 µM (inactive) | > 100 µM (inactive) | > 100 µM (inactive) | > 100 µM (inactive) | > 100 µM (inactive) | > 100 µM (inactive) | > 100 µM (inactive) | > 100 µM (inactive) | > 100 µM (inactive)
15 | Cn1cnc([N+](=O)[O-])c1SC1=NCCS1 | > 100 µM (inactive) | 91 µM (inactive) | > 100 µM (inactive) | > 100 µM (inactive) | 37.4 µM (inactive) | > 100 µM (inactive) | 28 µM (inactive) | > 100 µM (inactive) | 22 µM (inactive) | 36.7 µM (inactive) | – | > 100 µM (inactive) | 55 µM (inactive) | 47.4 µM (inactive) | > 100 µM (inactive) | 47.6 µM (inactive) | 72.8 µM (inactive) | 51.2 µM (inactive) | 28.2 µM (inactive) | –
